{"source": "patent US8940936B2", "about": "“Aryloxy phenoxy acrylic compound having HIF-1 inhibition activity, method for preparing same, and pharmaceutical composition containing same as an active ingredient” (Korea Research Institute of Bioscience and Biotechnology, priority 2010, dated 2015)", "key": {"[1]": {"assay": "Mouse weight changes and symptoms, repeated intravenous administration (HCT116 model)", "type": "in vivo", "conditions": "iv once a day, Example 1 30 mg/kg, topotecan 2 mg/kg", "experimental": "Female nude mice at 6 weeks (BALB/c nu/nu, Charles River) were raised in a germ-free facility where temperature and humidity were maintained at proper levels during the whole experimental period. After anesthetizing each mouse, the human rectal cancer cell line HCT116 was transplanted in rectal tissues at the density of 4×10^7 cells/mouse, and then the opened rectum was sealed with surgical clips. After transplanting the rectal cancer cell line, the tumor volume was measured with calipers. When the tumor volume reached 54.5 mm^3, the compound of the present invention prepared in example 1 was treated thereto. Particularly, for the experimental group, the compound of example 1 was dissolved in the solvent composed of saline (80%), DMAC (10%), and tween 80 (10%), which is indicated as ‘solvent A’ hereinafter, at the concentration of 30 mg/kg. The prepared compound solution was intravenously administered to the experimental group mice once a day at the dose of […]. The control was treated with the solvent A only without the compound once a day via oral administration at the dose of 15 ml/kg. The comparative group was treated with the solvent A containing topotecan (2 mg/kg) via intravenous injection once a day at the dose of 15 ml/kg. The weight and the tumor volume were measured once a day on day 0, 2, 3, 4, 5, 6, and 8.\nTumor volume was calculated by the following mathematical formula 1. To investigate the toxicity according to the repeated intravenous administration of the compound of example 1, mouse weight changes were observed and presented in Table 3. Inhibition rate (%) in Table 4 was calculated by the following mathematical formula 2, which indicates the inhibition of tumor growth by the compound presented by %. Tumor Volume(mm^3)=(major axis length of tumor cells, mm)×(minor axis length of tumor cells, mm)^2×0.5 [Mathematical Formula 1] Inhibition Rate (%)=[(Tumor Volume of Control−Tumor Volume of Experimental Group)/(Tumor Volume of Control)]×100 [Mathematical Formula 2]"}, "[2]": {"test_system": "human kidney cancer cell line Caki-1", "assay": "In vivo anticancer activity, intravenous injection 2, Caki-1 kidney cancer in nude mice", "set-up": "species or system mouse", "conditions": "Example 1 20 mg/kg/day, topotecan 2 mg/kg/day", "experimental": "To evaluate the inhibition effect of the compound prepared in example 1 administered via intravenous injection on the growth of kidney cancer, in vivo anticancer activity in mouse was measured. Particularly, nude-mice were grouped for experimental and control groups (5 mice per group). Changes in body weight, tumor volume, and tumor weight were measured to evaluate in vivo anticancer activity.\n(§1) Female nude mice at 6 weeks (BALB/c nu/nu, Charles River) were raised in a germ-free facility where temperature and humidity were maintained at proper levels during the whole experimental period. After anesthetizing each mouse, the human kidney cancer cell line Caki-1 was transplanted in kidney tissues at the density of 4×10^7 cells/mouse, and then the opened kidney was sealed with surgical clips. After transplanting the kidney cancer cell line, the tumor volume was measured with calipers. When the tumor volume reached 52.7 mm^3, the compound of the present invention prepared in example 1 was treated thereto. Particularly, for the experimental group, the compound of example 1 was dissolved in the solvent composed of cremophor (10%), DMAC (10%), and pH 10 buffer […], which is indicated as ‘solvent B’ hereinafter, at the concentration of 20 mg/kg. The prepared compound solution was intravenously administered to the experimental group mice once a day at the dose of […]. The control was treated with the solvent B only without the compound once a day via oral administration at the dose of 15 ml/kg. The comparative group was treated with the solvent B containing topotecan (2 mg/kg) via intravenous injection once a day at the dose of 15 ml/kg. The weight and the tumor volume were measured once a day on day 0, 2, 4, 7, 9, 11, and 14.\n(§2) Tumor volume was calculated by the mathematical formula 1 of Experimental Example 4. To investigate the toxicity according to the repeated intravenous administration of the compound of example 1, mouse weight changes were observed and presented in Table 5. Inhibition rate (%) in Table 6 was calculated by the mathematical formula 2, which indicates the inhibition of tumor growth by the compound presented by %."}, "[3]": {"assay": "Mouse weight changes and symptoms, repeated intravenous administration (Caki-1 model)", "type": "in vivo", "conditions": "iv, Example 1 20 mg/kg/day, topotecan 2 mg/kg/day", "experimental": "as §1, §2"}, "[4]": {"test_system": "B16F10 melanoma cell line", "assay": "Tumor growth, B16F10 melanoma in C57BL mice, intraperitoneal administration", "type": "in vivo, mouse", "conditions": "Example 1 20 mg/kg/day, topotecan 2 mg/kg/2 day; for Tumor volume changes (mm^3): ip; for Inhibition rate (%) of tumor volume: vs control", "experimental": "Particularly, the experimental group composed of 5 female mice (C57BL) at 6 weeks was transplanted with B16F10 melanoma cell line. After the cancer cells were grown, the mice were treated with the compound of formula 1 via intraperitoneal injection at the dose of […] for 5 days. Inhibition of angiogenesis and the tumor growth were observed. In the meantime, the control group was treated with the mixed solution comprising 10% DMAC, 10% cremophor and 80% buffer (pH 10) every day. The comparative group was treated with topotecan at the dose of 2 mg/kg once every other day. Weight changes and the newly generated blood vessels were measured and the results are shown in Table 7, Table 8, FIG. 7, and FIG. 8. The tumor volume shown in Table 8 was calculated by the mathematical formula 1 of experimental example 4 and the inhibition rate was calculated by the mathematical formula 2 of experimental example 4."}, "[5]": {"test_system": "B16F10 melanoma cell line", "assay": "Cancer metastasis inhibition activity, B16F10 melanoma lung colonies in C57BL mice", "type": "in vivo, mouse", "conditions": "Example 1 20 mg/kg/day, topotecan 2 mg/kg/2 day", "experimental": "Particularly, the experimental group composed of 6 female mice (C57BL) at 6 weeks was transplanted with B16F10 melanoma cell line. After the cancer cells were grown, the mice were treated with the compound of formula 1 via intraperitoneal injection at the dose of […] every day for 12 days. Inhibition of angiogenesis and the tumor growth were observed. In the meantime, the control group was treated with purified water every day. The comparative group was treated with topotecan at the dose of 2 mg/kg once every other day. Weight changes and cancer metastasis were measured and the results are shown in Table 9, Table 10, and FIG. 10.\nAs shown in Table 10 and FIG. 10, the mice were sacrificed on the last day of experiment (day 12) and then cancer colonies in lung were counted by the naked eye."}}, "data": [{"molecule": "CC[C@@]1(O)C(=O)OCc2c1cc1n(c2=O)Cc2cc3c(CN(C)C)c(O)ccc3nc2-1", "note": "[topotecan, reference compound]", "values": [{"measurement": "Mouse weight changes (%)", "setting": "[1]; day 0", "result": "100.0 ± 0.0", "unit": "%"}, {"measurement": "Mouse weight changes (%)", "setting": "[1]; day 2", "result": "101.7 ± 1.0", "unit": "%"}, {"measurement": "Mouse weight changes (%)", "setting": "[1]; day 3", "result": "101.8 ± 1.1", "unit": "%"}, {"measurement": "Mouse weight changes (%)", "setting": "[1]; day 4", "result": "103.2 ± 5.4", "unit": "%"}, {"measurement": "Mouse weight changes (%)", "setting": "[1]; day 5", "result": "99.1 ± 1.4", "unit": "%"}, {"measurement": "Mouse weight changes (%)", "setting": "[1]; day 6", "result": "98.7 ± 1.7", "unit": "%"}, {"measurement": "Mouse weight changes (%)", "setting": "[1]; day 8", "result": "95.6 ± 1.4", "unit": "%"}, {"measurement": "Tumor volume (mm^3)", "setting": "[2]; day 0, iv", "result": "0.0 ± 0.0", "unit": "mm^3"}, {"measurement": "Tumor volume (mm^3)", "setting": "[2]; day 2, iv", "result": "16.7 ± 2.3", "unit": "mm^3"}, {"measurement": "Inhibition rate (%) of tumor volume", "setting": "[2]; day 2, vs control", "result": 20.1, "unit": "%"}, {"measurement": "Tumor volume (mm^3)", "setting": "[2]; day 4, iv", "result": "38.7 ± 4.8", "unit": "mm^3"}, {"measurement": "Inhibition rate (%) of tumor volume", "setting": "[2]; day 4, vs control", "result": 26.6, "unit": "%"}, {"measurement": "Tumor volume (mm^3)", "setting": "[2]; day 7, iv", "result": "67.8 ± 8.6", "unit": "mm^3"}, {"measurement": "Inhibition rate (%) of tumor volume", "setting": "[2]; day 7, vs control", "result": 33.8, "unit": "%"}, {"measurement": "Tumor volume (mm^3)", "setting": "[2]; day 9, iv", "result": "88.5 ± 19.6", "unit": "mm^3"}, {"measurement": "Inhibition rate (%) of tumor volume", "setting": "[2]; day 9, vs control", "result": 40.6, "unit": "%"}, {"measurement": "Tumor volume (mm^3)", "setting": "[2]; day 11, iv", "result": "120.9 ± 36.0", "unit": "mm^3"}, {"measurement": "Inhibition rate (%) of tumor volume", "setting": "[2]; day 11, vs control", "result": 40.9, "unit": "%"}, {"measurement": "Tumor weight", "setting": "[2]; day 14 (final day), iv", "result": "472.4 ± 137.6", "unit": "mg"}, {"measurement": "Tumor volume (mm^3)", "setting": "[2]; day 14, iv", "result": "156.9 ± 51.3", "unit": "mm^3"}, {"measurement": "Inhibition rate (%) of tumor volume", "setting": "[2]; day 14, vs control", "result": 45.8, "unit": "%"}, {"measurement": "Inhibition rate (%) of tumor weight", "setting": "[2]; day 14, vs control", "result": 48.0, "unit": "%"}, {"measurement": "Mouse weight changes (%)", "setting": "[3]; day 0", "result": "100.0 ± 0.0", "unit": "%"}, {"measurement": "Mouse weight changes (%)", "setting": "[3]; day 2", "result": "104.7 ± 1.9", "unit": "%"}, {"measurement": "Mouse weight changes (%)", "setting": "[3]; day 4", "result": "103.8 ± 3.8", "unit": "%"}, {"measurement": "Mouse weight changes (%)", "setting": "[3]; day 7", "result": "103.4 ± 2.6", "unit": "%"}, {"measurement": "Mouse weight changes (%)", "setting": "[3]; day 9", "result": "101.8 ± 3.6", "unit": "%"}, {"measurement": "Mouse weight changes (%)", "setting": "[3]; day 11", "result": "103.0 ± 3.6", "unit": "%"}, {"measurement": "Mouse weight changes (%)", "setting": "[3]; day 14", "result": "102.9 ± 5.3", "unit": "%"}, {"measurement": "Tumor volume changes (mm^3)", "setting": "[4]; day 0", "result": "0.0 ± 0.0", "unit": "mm^3"}, {"measurement": "Tumor volume changes (mm^3)", "setting": "[4]; day 3", "result": "20.9 ± 2.6", "unit": "mm^3"}, {"measurement": "Inhibition rate (%) of tumor volume", "setting": "[4]; day 3", "result": 37.4, "unit": "%"}, {"measurement": "Tumor volume changes (mm^3)", "setting": "[4]; day 4", "result": "27.1 ± 2.3", "unit": "mm^3"}, {"measurement": "Inhibition rate (%) of tumor volume", "setting": "[4]; day 4", "result": 42.4, "unit": "%"}, {"measurement": "Tumor volume changes (mm^3)", "setting": "[4]; day 5", "result": "42.9 ± 4.5", "unit": "mm^3"}, {"measurement": "Inhibition rate (%) of tumor volume", "setting": "[4]; day 5", "result": 45.4, "unit": "%"}, {"measurement": "Metastasis colony number", "setting": "[5]; day 12, ip", "result": "148.3 ± 49.4"}, {"measurement": "Metastasis inhibition rate (%)", "setting": "[5]; day 12, vs control", "result": 51.7, "unit": "%"}]}]}
